Assay results published in patent US9073858B2, “Methods of targeted drug development” (priority 2010, dated 2015).
Where two headings read alike, the source gives them in different places.

Assays:
[1] = Stability on incubation with mouse liver microsomes (MLM); format: in vitro ADME; conditions: percentage left after incubation with mouse liver microsomes for 30 minutes
Experimental: (§1) Stability of hydroxyquinoline analogs were determined (see e.g., TABLE 18). MLM represents the percentage left after incubation with mouse liver microsomes for 30 minutes. HLM represents the percentage left after incubation with human liver microsomes for 30 minutes.
(§2) Stability of analogs having a benzaldehyde derived ring were determined (see e.g., TABLE 18). MLM represents the percentage left after incubation with mouse liver microsomes for 30 minutes. HLM represents the percentage left after incubation with human liver microsomes for 30 minutes.

[2] = Stability on incubation with human liver microsomes (HLM); format: in vitro ADME; conditions: percentage left after incubation with human liver microsomes for 30 minutes
Experimental: as §1, §2

[3] = target: T1, EGFR (Homo sapiens, UniProt P00533); assay: EGFR in-cell Western (ICW) screening protocol; format: cell-based; parameters: unit not given here; conditions: for ICW Screen: initial screen
T1 construct: endogenous in cells; host or cells: A431 cells (ATCC CRL-1555)
How it was run: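 Serum-starved cells treated with compound 4 h at 37 °C, then stimulated with EGF (20 or 0 ng/ml solution added) in its continued presence. In-cell Western on fixed cells: phospho-EGFR (800 channel) normalised to total EGFR (700 channel), % inhibition calculated against EGF-stimulated and unstimulated no-compound wells.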

[4] = tested on: epithelial carcinoma A431 cell line; assay: MTT Cell Proliferation Assay, A431 cell line; format: cell-based; conditions: for MTT-72 h A431/MDBK (ratio) / MTT (10 Point follow-up) ratio: value in brackets; for MTT-72 h A431/MDBK (ratio): numerically MDBK value over A431 value; for IC50: Homo sapiens; for MTT (10 Point follow-up) ratio: numerically MDBK over A431
How it was run: (§3)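 Cells plated overnight, then exposed 3 days at 37 °C, 5% CO2 to compound in growth medium with 0.5% FBS and 0.5% DMSO final (0.5% DMSO as control).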

[5] = tested on: MDBK line; assay: MTT Cell Proliferation Assay, MDBK line; format: cell-based, bovine; conditions: Bos taurus, MDBK
How it was run: as §3

[6] = A-431, 72 h, 72 h, first value of A431/MDBK pair, read-out: MTT-72 h A431
[7] = 72 h, second value of A431/MDBK pair, read-out: MTT-72 h MDBK
[8] = A-431, 10 point follow-up, first value of pair, read-out: MTT (10 Point follow-up) A431
[9] = 10 point follow-up, second value of pair, read-out: MTT (10 Point follow-up) MDBK

T1 sequence (P00533 25-1210): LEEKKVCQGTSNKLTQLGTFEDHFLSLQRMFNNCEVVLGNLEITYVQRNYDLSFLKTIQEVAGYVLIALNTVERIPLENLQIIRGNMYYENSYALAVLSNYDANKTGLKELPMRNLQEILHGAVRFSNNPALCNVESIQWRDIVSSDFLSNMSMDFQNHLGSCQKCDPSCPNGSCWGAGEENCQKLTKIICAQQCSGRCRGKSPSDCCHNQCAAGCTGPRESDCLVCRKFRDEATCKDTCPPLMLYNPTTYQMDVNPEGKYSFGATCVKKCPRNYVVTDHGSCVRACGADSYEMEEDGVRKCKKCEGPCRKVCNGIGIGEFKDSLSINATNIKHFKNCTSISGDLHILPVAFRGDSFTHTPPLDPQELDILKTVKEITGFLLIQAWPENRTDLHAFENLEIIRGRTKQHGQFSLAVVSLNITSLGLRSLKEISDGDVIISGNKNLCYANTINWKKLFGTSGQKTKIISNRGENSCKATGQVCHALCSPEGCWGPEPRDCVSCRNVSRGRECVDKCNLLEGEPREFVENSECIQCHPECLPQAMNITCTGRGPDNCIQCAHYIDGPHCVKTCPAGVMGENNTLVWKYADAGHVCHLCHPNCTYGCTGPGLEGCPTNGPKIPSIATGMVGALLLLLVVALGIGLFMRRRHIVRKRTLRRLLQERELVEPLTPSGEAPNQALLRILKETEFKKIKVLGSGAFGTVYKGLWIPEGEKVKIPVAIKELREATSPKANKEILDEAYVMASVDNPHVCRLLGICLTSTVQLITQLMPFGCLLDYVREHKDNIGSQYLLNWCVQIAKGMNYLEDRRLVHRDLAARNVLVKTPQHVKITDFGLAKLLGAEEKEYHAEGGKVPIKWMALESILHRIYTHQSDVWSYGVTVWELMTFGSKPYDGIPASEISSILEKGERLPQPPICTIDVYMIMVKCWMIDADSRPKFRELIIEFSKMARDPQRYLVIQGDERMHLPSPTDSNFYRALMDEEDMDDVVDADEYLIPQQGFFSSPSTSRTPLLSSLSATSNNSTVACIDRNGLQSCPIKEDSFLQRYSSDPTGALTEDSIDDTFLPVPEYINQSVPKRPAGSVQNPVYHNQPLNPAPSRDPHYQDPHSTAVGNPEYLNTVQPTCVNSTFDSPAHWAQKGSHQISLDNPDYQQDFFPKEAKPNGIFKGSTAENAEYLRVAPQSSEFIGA

Row | SMILES | MLM % Remaining@ 30 Min [1] | HLM % Remaining@ 30 Min [2] | ICW Screen [3] | MTT-72 h A431/MDBK (ratio) ([4]; 72 h) | IC50 [4, 6] | IC50 [5, 7] | other results
1 | Oc1c(C(Nc2cccnc2)c2cccc(Cl)c2Cl)ccc2cccnc12 (centres unmarked) [AD4-12908] | 6% | 48% | – | – | – | – | –
2 | Oc1c(C(Nc2ccc(C(F)(F)F)nc2)c2ccc(C(F)(F)F)c(F)c2)ccc2cccnc12 (centres unmarked) [AD4-13051] | 40% | 72% | – | – | – | – | –
3 | Cc1ccnc(NC(c2cc(Cl)cc(Cl)c2)c2ccc3cccnc3c2O)c1 (centres unmarked) [AD4-12915] | 25% | 71% | – | – | – | – | –
4 | Cc1nc(NC(c2ccc(Cl)c(Cl)c2)c2ccc3cccnc3c2O)c(Cl)cc1Cl (centres unmarked) [AD4-13202] | 97% | 100% | – | – | – | – | –
5 | Cc1cc(NC(c2cc(Cl)cc(Cl)c2)c2ccc3cccnc3c2O)ncc1Cl (centres unmarked) [AD4-13122] | 60% | 94% | – | – | – | – | –
6 | Cc1cccc(NC(c2ccc3cccnc3c2O)c2c(F)c(F)cc(F)c2F)n1 (centres unmarked) [AD4-12918] | 15% | 51% | – | – | – | – | –
7 | Oc1c(C(Nc2ccc(C(F)(F)F)nc2)c2ccc(C(F)(F)F)cc2F)ccc2cccnc12 (centres unmarked) [AD4-13065] | 47% | 83% | – | – | – | – | –
8 | Cc1cccc(NC(c2ccc(Cl)cc2Cl)c2ccc3cccnc3c2O)n1 (centres unmarked) [AD4-12911] | 17% | 57% | – | – | – | – | –
9 | Cc1cccc(NC(c2cc(Cl)cc(Cl)c2)c2cc(Cl)c3cccnc3c2O)n1 (centres unmarked) [AD4-13076] | 28% | 70% | – | – | – | – | –
10 | Cc1ccc2ccc(C(Nc3ncc(Cl)cc3C)c3ccc(Cl)cc3Cl)c(O)c2n1 (centres unmarked) [AD4-13200] | 67% | 94% | – | – | – | – | –
11 | Cc1cccc(NC(c2cccc(C(F)(F)F)c2)c2ccc3cccnc3c2O)n1 (centres unmarked) [AD4-12903] | 18% | 46% | – | – | – | – | –
12 | Oc1c(C(Nc2ccc(C(F)(F)F)cn2)c2ccc(F)cc2F)ccc2cccnc12 (centres unmarked) [AD4-13029] | 77% | 76% | – | – | – | – | –
13 | Oc1c(C(Nc2ccc(C(F)(F)F)nc2)c2ccc(C(F)(F)F)cc2)ccc2cccnc12 (centres unmarked) [AD4-13063] | 42% | 80% | – | – | – | – | –
14 | Cc1cc(NC(c2ccc(C(F)(F)F)c(F)c2)c2ccc3cccnc3c2O)ncc1Cl (centres unmarked) [AD4-13106] | 42% | 86% | – | – | – | – | –
15 | COc1ccc(C(Nc2cccc(C)n2)c2ccc3cccnc3c2O)cc1O (centres unmarked) [AD4-12909] | 13% | 50% | – | – | – | – | –
16 | Oc1c(C(Nc2ccc(Cl)cn2)c2ccc(Cl)c(Cl)c2)ccc2cccnc12 (centres unmarked) [AD4-13054] | 46% | 80% | – | – | – | – | –
17 | Cc1cccc(NC(c2cc(Cl)ccc2Cl)c2ccc3cccnc3c2O)n1 (centres unmarked) [AD4-12955] | 41% | 61% | – | – | – | – | –
18 | Cc1cccc(NC(c2ccc(Cl)c(Cl)c2)c2ccc3cccnc3c2O)n1 (centres unmarked) [AD4-12916] | 26% | 80% | – | – | – | – | –
19 | Oc1c(C(Nc2ccc(Cl)cn2)c2ccc(C(F)(F)F)c(F)c2)ccc2cccnc12 (centres unmarked) [AD4-13055] | 57% | 100% | – | – | – | – | –
20 | Cc1cc(Cl)cnc1NC(c1ccc(C(F)(F)F)c(F)c1)c1ccc2cccnc2c1O (centres unmarked) [AD4-13043] | 77% | 98% | – | – | – | – | –

Row | SMILES | MLM % Remaining@ 30 Min [1] | HLM % Remaining@ 30 Min [2] | ICW Screen [3] | MTT-72 h A431/MDBK (ratio) ([4]; 72 h) | IC50 [4, 6] | IC50 [5, 7] | other results
21 | Cc1ccnc(NC(c2ccccc2Cl)c2ccc3cccnc3c2O)c1 (centres unmarked) [AD4-12907] | 5% | 14% | – | – | – | – | –
22 | Cc1cccc(NC(c2ccc(C)c(F)c2F)c2ccc3ccc(C)nc3c2O)n1 (centres unmarked) [AD4-13022] | 5% | 36% | – | – | – | – | –
23 | Cc1cc(Cl)cnc1NC(c1ccc2cccnc2c1O)c1c(F)c(F)cc(F)c1F (centres unmarked) [AD4-13059] | 64% | 92% | – | – | – | – | –
24 | Cc1cc(Cl)cnc1NC(c1ccc(F)cc1F)c1ccc2cccnc2c1O (centres unmarked) [AD4-13068] | 46% | 96% | – | – | – | – | –
25 | Cc1cccc(NC(c2cc(Cl)cc(Cl)c2Cl)c2ccc3cccnc3c2O)n1 (centres unmarked) [AD4-13023] | 60% | 95% | – | – | – | – | –
26 | Cc1ccc2ccc(C(Nc3ccccn3)c3cccc(O)c3)c(O)c2n1 (centres unmarked) [compound 1970] | – | – | 26.33 | 0.81 | 39.7 µM | 32.4 µM | –
27 | COc1cc(C(Nc2ccccn2)c2cc(Cl)c3cccnc3c2O)cc(I)c1O (centres unmarked) [compound 10086] | – | – | 53.89 | 0.77 | 5.96 µM | 4.61 µM | ICW Re-Test [3]: 25.94
28 | CCN1CCN(C(c2cccnc2)c2ccc3cccnc3c2O)CC1 (centres unmarked) [compound 10550] | – | – | 31.84 | 0.79 | 9.59 µM | 7.6 µM | –
29 | Oc1ccccc1NC(c1cccnc1)c1ccc2cccnc2c1O (centres unmarked) [compound 11151] | – | – | 35.56 | 0.76 | 8.25 µM | 6.23 µM | ICW Re-Test [3]: 45.66
30 | Cc1ccnc(NC(c2ccc3c(c2)OCO3)c2ccc3cccnc3c2O)c1 (centres unmarked) [compound 10038] | – | – | 28.31 | 0.94 | 5.75 µM | 5.42 µM | –
31 | Oc1c(C(Nc2ccccn2)c2cccc(Cl)c2Cl)ccc2cccnc12 (centres unmarked) [compound 10051] | – | – | 36.47 | 1.80 | 0.79 µM | 1.42 µM | MTT (10 Point follow-up) ratio [4]: 1.79; IC50 [4, 8]: 0.545 µM; IC50 [5, 9]: 0.974 µM
32 | Cc1cccc(NC(c2ccc(O)cc2)c2ccc3ccc(C)nc3c2O)n1 (centres unmarked) [compound 10037] | – | – | 32.12 | 0.42 | 43 µM | 18.2 µM | –
33 | Oc1c(C(c2ccccn2)N2CCN(Cc3ccccc3)CC2)ccc2cccnc12 (centres unmarked) [compound 10534] | – | – | 28.31 | 0.85 | 10.8 µM | 9.18 µM | –
34 | Cc1cccc(NC(c2ccc(C)s2)c2ccc3ccc(C)nc3c2O)n1 (centres unmarked) [compound 10952] | – | – | 49.39 | 0.74 | 10.5 µM | 7.77 µM | ICW Re-Test [3]: 43.94
35 | Cc1cccc(NC(c2ccc(F)cc2)c2ccc3cccnc3c2O)n1 (centres unmarked) [compound 10056] | – | – | 34.16 | 0.96 | 5.38 µM | 5.18 µM | ICW Re-Test [3]: 44.46
36 | Oc1c(C(Nc2ccccn2)c2ccc(Br)cc2)ccc2cccnc12 (centres unmarked) [compound 10048] | – | – | 44.94 | – | – | – | ICW Re-Test [3]: 15.3; MTT (10 Point follow-up) ratio [4]: 0.96; IC50 [4, 8]: 5.46 µM; IC50 [5, 9]: 5.23 µM
37 | C=CCOc1cccc(C(Nc2cc(C)ccn2)c2ccc3cccnc3c2O)c1 (centres unmarked) [compound 10144] | – | – | 39.73 | 0.93 | 5.67 µM | 5.29 µM | ICW Re-Test [3]: 21.02
38 | Cc1ccc(NC(c2ccccc2)c2ccc3cccnc3c2O)cc1 (centres unmarked) [compound 10664] | – | – | 64.09 | 1.12 | 1.92 µM | 2.14 µM | ICW Re-Test [3]: 69.21
39 | C=CCOc1cccc(C(Nc2ccccn2)c2ccc3cccnc3c2O)c1 (centres unmarked) [compound 10050] | – | – | 32.11 | 0.97 | 5.39 µM | 5.35 µM | –
